From publication PMC4122355, “Inhibitor of the Tyrosine Phosphatase STEP Reverses Cognitive Deficits in a Mouse Model of Alzheimer's Disease” (PLoS Biology, 2014)

Experiments:
3xTg-AD and WT mice = assay: Y-maze alternation task; format: in vivo, mouse; settings: 10 mg/kg i.p. 3 h prior
Description: The Y-maze apparatus consisted of three dark gray arms (42×4.8×20 cm). […] The total number of arm entries was recorded, as was the number of entries representing alternation behavior (i.e., sequential entry into all three arms). All four paws of the mouse had to enter an arm for it to count as an arm entry. Percentage spontaneous alternation = (number of alternations)/(total arm entries – 2). […] A total number of 20 WT and 11 AD mice were used in the Y-maze task.

SHP-2 = molecular target: T1, SHP-2 (Homo sapiens, UniProt Q06124); assay: Selectivity pNPP assay, full-length PTPs: SHP-2; format: biochemical; settings: full-length PTP, 10 nM, 500 µM pNPP
T1 construct: GST (N); made in house; host or cells: E. coli BL21 (DE3)
T1 sequence (Q06124 1-593): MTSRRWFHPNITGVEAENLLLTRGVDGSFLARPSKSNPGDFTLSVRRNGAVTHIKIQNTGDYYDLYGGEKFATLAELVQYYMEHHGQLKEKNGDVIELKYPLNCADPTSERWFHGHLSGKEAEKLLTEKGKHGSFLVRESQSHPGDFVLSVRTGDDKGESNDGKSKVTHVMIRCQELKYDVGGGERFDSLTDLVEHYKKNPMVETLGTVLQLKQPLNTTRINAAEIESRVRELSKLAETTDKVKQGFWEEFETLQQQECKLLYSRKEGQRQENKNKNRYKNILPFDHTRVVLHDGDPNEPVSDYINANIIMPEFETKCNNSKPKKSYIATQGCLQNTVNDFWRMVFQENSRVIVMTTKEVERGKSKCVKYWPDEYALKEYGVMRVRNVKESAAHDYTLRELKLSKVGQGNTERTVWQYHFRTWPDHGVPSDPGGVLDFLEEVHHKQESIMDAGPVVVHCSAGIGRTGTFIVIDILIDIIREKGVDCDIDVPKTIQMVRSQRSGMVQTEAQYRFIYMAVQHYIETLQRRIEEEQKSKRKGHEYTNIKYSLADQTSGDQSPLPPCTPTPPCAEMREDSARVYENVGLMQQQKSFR
Text: Constructs were transformed into BL21 (DE3) E. coli cells. Fusion proteins were purified on a glutathione sepharose column.

cortical cultures = assay: LDH release toxicity assay in cortical cultures; format: cell-based; settings: up to 100 µM, up to 48 h, compared to positive controls
Description: Bovine LDH was used as a LDH-positive control. The media was collected and analyzed for LDH. The assay quantitatively measures LDH, a stable cytosolic enzyme that is released upon cell lysis. Released LDH in culture supernatants is measured with a 30-min coupled enzymatic assay, which results in the conversion of a tetrazolium salt (INT) into a red formazan product. The amount of color formed is proportional to the number of lysed cells.

STEP = molecular target: T2, STEP (Mus musculus, UniProt P54830); assay: Dialysis of TC-2153-inhibited STEP; format: biochemical; settings: after 24 h of dialysis
T2 sequence (P54830 1-541): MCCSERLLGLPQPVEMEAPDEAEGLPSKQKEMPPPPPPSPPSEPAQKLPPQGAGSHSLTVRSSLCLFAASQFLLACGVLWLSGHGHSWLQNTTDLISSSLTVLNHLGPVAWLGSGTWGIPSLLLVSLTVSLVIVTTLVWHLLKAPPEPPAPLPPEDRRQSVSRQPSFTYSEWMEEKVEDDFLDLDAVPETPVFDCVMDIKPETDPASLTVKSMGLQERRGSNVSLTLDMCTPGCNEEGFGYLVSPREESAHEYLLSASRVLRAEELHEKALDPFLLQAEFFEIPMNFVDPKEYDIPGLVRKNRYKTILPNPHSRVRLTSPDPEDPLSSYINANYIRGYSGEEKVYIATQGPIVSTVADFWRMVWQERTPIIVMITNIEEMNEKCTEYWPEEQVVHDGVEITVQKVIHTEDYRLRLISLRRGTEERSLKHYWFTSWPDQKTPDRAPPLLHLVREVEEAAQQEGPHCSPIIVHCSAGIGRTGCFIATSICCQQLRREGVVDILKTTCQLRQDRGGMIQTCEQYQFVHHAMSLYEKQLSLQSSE
Description: The samples were shaken at room temperature for 1 h to inhibit STEP. Each sample was then transferred to a separate Thermo Scientific Slide-A-Lyzer dialysis cassette with a 10,000 MW cutoff and 0.5–3.0 mL sample volume and was dialyzed into 1 L of 1× assay buffer over 24 h in a 4°C cold room. Aliquots of approximately 100 µL were removed from the dialysis cassette at 0, 4, and 24 h time points. Protein concentration was determined by reading absorbance at 280 nm compared to a standard curve for STEP. The samples were diluted to 100 nM in 100 µL of 1× assay buffer. […] The initial rate data collected were used to determine enzyme activity standardized to the DMSO control zero time point.

## Cl.Nc1cc(C(F)(F)F)cc2c1SSSSS2 [TC-2153, 8-(trifluoromethyl)-1,2,3,4,5-benzopentathiepin-6-amine hydrochloride]
3xTg-AD and WT mice
  Y-maze arm entries (general motor activity): no significant change in arm entries
3xTg-AD and WT mice; WT mice, vehicle 74.98±2.19
  Y-maze percentage spontaneous alternation, WT mice: 73.45±3.19
SHP-2
  IC50: 6.9 µM
Cortical cultures
  LDH release (neuronal cell death): no significant effect on LDH release
STEP
  STEP activity after dialysis (reversibility): STEP remained inhibited
